These results are taken from patent US11628176B2, “Combinational drug therapies” (Opna Bio SA, priority 2020, dated 2023).

Where two headings read alike, the source gives them in different places.

Experiment [1] concerns 22Rv1 cells. The experiment can be described thus: Prostate cancer cell growth assay, single compound (CellTiter-Glo). It counts as cell-based. The following applies: Homo sapiens, 120 h, 22Rv1 cell growth, 5 days incubation. The protocol:
(§1) Growth assays were done in triplicate and performed as follows.
(§2) 1. On Day 1, LNCaP and 22Rv1 cells were seeded in wells of a 96-well plate at a density of 3000 cells/well in 100 μL of culture media (RPMI 1640 medium supplemented with 10% fetal bovine serum and 1% Penicillin/Streptomycin). Cells were incubated overnight at 37° C. in a humidified atmosphere with 5% CO2.
(§3) 2. On Day 2, for single compound treatment studies, each compound was serially diluted 1:3 in DMSO to create a 9-point titration. A 3 μL aliquot of each dilution was added to 747 μL culture media and 100 μL were added to each triplicate well. Wells containing 0.2% DMSO-treated cells served as uninhibited controls.
(§4) In all studies, cells were incubated at 37° C. in a humidified atmosphere with 5% CO2 for 5 days.
(§5) 3. On Day 7, cell cultures were brought to room temperature for 30 minutes and 50 μL of reconstituted CellTiter-Glo Reagent was added to each well. Plates were shaken at room temperature for approximately 15 minutes Luminescent signal was quantified on a microplate reader.
(§6) 1. For single compound treatment study, all responses were expressed as % inhibition (the percentage inhibition compared to the average response of the DMSO-treated control wells). The data were analyzed by using nonlinear regression to generate IC50 values in Prism (GraphPad, La Jolla, Calif.). 95% confident interval (CI95) of the IC50 values were also calculated in Prism.
On the technique in general: ATP-based viability assays read luminescence as a measure of living cells.

Experiment [2] has as its system LNCaP cells. The description is as above. It counts as cell-based. The following applies: Homo sapiens, 120 h, 5 days incubation. The protocol:
as §1, §2, §3, §4, §5, §6

[3] abbreviates: n=3, read-out: IC50 (geometric mean).

The IC50 is the concentration at which inhibition is half-maximal. Take `CC(=O)O[C@H]1CC[C@@]2(C)C(=CC[C@@H]3[C@@H]2CC[C@]2(C)C(c4cccnc4)=CC[C@@H]32)C1` [Abiraterone acetate, abiraterone acetate, reference compound]: the IC50 in experiment [1] (setting [3]) is 42000 nM; in experiment [2] (setting [3]), 3500 nM.

On to `Cc1noc(C)c1-c1cnc2c(-c3ccc(C(=O)O)cc3)cn(C(C)(c3ccccn3)c3ccccn3)c2c1` [Compound I, 4-(1-(1,1-di(pyridin-2-yl)ethyl)-6-(3,5-dimethylisoxazol-4-yl)-1H-pyrrolo[3,2-b]pyridin-3-yl)benzoic acid], for which the half-inhibitory concentration (IC50) in experiment [1] (setting [3]) is 34 nM; in experiment [1] (read-out: IC50) it was 34 nM; in experiment [2] (setting [3]) it was 43 nM; in experiment [2] (read-out: IC50) it was 43 nM.
